Measurements published in patent US10538485B2, “Compounds for use as therapeutic agents affecting P53 expression and/or activity” (ABIVAX, priority 2011, dated 2020).

Key:
Assay type in all cases: cell-based
[1] = test system: p53 (wild-type p53 MCF7 cells); experiment: p53 and Δ133p53 mRNA level by RT-qPCR in MCF7 cells; details: 5 μM, 48 hours, vs DMSO
Procedure: (§1) The compounds of the invention have been tested according to the following pharmacological test and the three compounds have been more particularly tested: (40), (1) and (45), all diluted in DMSO. Their effects were thus compared to cells treated with DMSO. A positive control was used, TG003, a benzothiazole compound known to alter splicing through the inhibition of Clk/Sty family activity (Sigma, ref: T5575).
(§2) Two breast cancer cell lines have been treated with 5 μM of drugs for 48 hours: wild-type p53 MCF7 cells and mutant p53 (R280K) MDA-MB-231-Luc-D3H2N provided by Caliper Life Science (parental Line source: American Type Culture collection). The MDA-MB-231-Luc-D3H2N cells were maintained in two different media during treatment: a DMEM supplemented with 10% foetal calf serum (FCS) and a FCS-free medium for 24 hours followed by 24 hours in a complete medium. The MC7 cells were maintained in a DMEM/FCS 10% medium.
(§3) Cells were harvested after 48 hours of treatment. Total RNAs (RNeasy Mini-Kit, Qiagen) and proteins (NuPage LDS 1×, Invitrogen) were extracted to analyse mRNA expression by nested RT-PCR or RT-qPCR and protein expression by Western Blot.
(§4) Analysis of p53 expression was assessed both at mRNA (full-length and truncated, Δ133p53 isoforms) and protein (full-length) levels by RT-qPCR and Western Blot, respectively.
(§5) The p53 isoform cDNA being too long to be specifically quantified by RT-qPCR, a semi-quantitative RT-PCR method was therefore used, requiring high quality total RNA 28S/18S ratio (>1.5). After reverse-transcription of 500 ng of total RNA using random primers, actin cDNA was amplified by PCR to confirm reverse-transcription efficiency. 0.5 μg of total RNA from each tumour sample was reverse-transcribed (AMV RT, 45 C, random primer) and cDNA quality confirmed by amplification of actin by PCR in 30 cycles. p53 isoform cDNA was amplified by 2 nested PCR of 30 cycles using primers specific of each isoforms as described in Bourdon et al. (Genes Dev., 2005, 19: 2122). Tumours were considered to express each p53 isoform after sequencing of the corresponding PCR fragment.

[2] = test system: p53 (mutant p53 (R280K) MDA-MB-231-Luc-D3H2N cells); experiment: p53 mRNA level by RT-qPCR in MDA-MB-231-Luc-D3H2N cells; details: 5 μM, 48 hours; for p53 expression at mRNA levels (total isoforms, TA): decreased or not: mutant p53 MDA-MB-231-Luc-D3H2N cells in FCS-free medium; for p53 expression at mRNA levels (total isoforms, TA): mutant p53 MDA-MB-231-Luc-D3H2N cells in normal medium
Procedure: as §1, §2, §3, §4, §5

[3] = test system: p53 (mutant p53 (R280K) MDA-MB-231-Luc-D3H2N cells); experiment: p53 protein expression by Western Blot (4 antibodies) in MDA-MB-231-Luc-D3H2N cells; details: 5 μM, 48 hours
Procedure: as §1, §2, §3
(§6) p53 protein expression was determined using a panel of 4 different antibodies, namely DO1, SAPLI, CMI and DO12 as described in Bourdon et al. (Genes Dev., 2005, 19: 2122), to avoid problem of detection due to post-translational modification.
The amount of total proteins in each extract was quantified using BCA kit (promega). 8% SDS-PAGE gels were used. Equal amount (30 μg) of proteins was loaded on each lane. Proteins were then transferred electrophoretically on nitrocellulose membrane. Membranes were blocked in TBS/0.1% Tween 20 containing 3% milk for one hour and then incubated overnight with the primary antibodies diluted in TBS/0.1% Tween 20 containing 3% milk. After several washes in TBS/Tween, membranes were incubated with anti-rabbit Ig antibodies linked to HRP. Membranes were developed with ECL according to the manufacturer's instructions.
(§7) Scanned autoradiographs were quantified using AIDA/2D densitometry software.

[4] = test system: p53-target genes Hdm2, Bcl-2, p21 (mutant p53 MDA-MB-231-Luc-D3H2N cells); experiment: p53 transcriptional activity: p53-target gene expression by Western-blot in MDA-MB-231-Luc-D3H2N cells; details: 5 μM, 48 hours
Procedure: as §1, §2, §3
(§8) Analysis of p53 transcriptional activity was assessed through analysis of p53-target gene expression by Western-blot. Four p53-target genes were studied: Hdm2, Bcl-2, p21 and Bax. Hdm2 is known to bind p53 and to negatively regulate p53 activity and stability. p21 is known to mediate p53 dependent cycle arrest. Bcl 2 is known to have an anti-proliferative effect and an apoptotic protective effect, while Bax is known to have a pro-apoptic effect. Bax was not detected in both MCF7 and MDA-MB-231-Luc-D3H2N cells, while p21 was not detected in MDA-MB-231-Luc-D3H2N cells maintained in FCS-free medium. The Western-blot was performed as above described using the antibodies described in Bourdon et al., Genes Dev., 2005, 19: 2122.

[5] = test system: p53 isoforms produced by alternative splicing (wild-type p53 MCF7 cells); experiment: p53 isoforms (α, β, γ) expression at mRNA level in MCF7 cells; details: 5 μM, 48 hours, RT-qPCR
Procedure: as §2, §3
(§9) Expression of p53 isoforms produced by alternative splicing (α, β and γ) was analysed at mRNA levels by RT-qPCR using primers/probe specific of each C-terminal variants. The α-forms are the most abundant forms. In the low abundant forms, β-forms are more expressed than γ-forms.
as §5, with “A semi-quantitative” for “The p53 isoform cDNA being too long to be specifically quantified by RT-qPCR, a semi-quantitative”, “method” for “method was therefore used,”, “RT, 45C,” for “RT, 45 C,”, “described by” for “described in”

[6] = test system: p53 isoforms produced by alternative splicing (mutant p53 MDA-MB-231-Luc-D3H2N cells); experiment: p53 isoforms (α, β, γ) expression at mRNA level in MDA-MB-231-Luc-D3H2N cells; details: 5 μM, 48 hours
Procedure: as §2, §3, §9
as §5, with “A semi-quantitative” for “The p53 isoform cDNA being too long to be specifically quantified by RT-qPCR, a semi-quantitative”, “method” for “method was therefore used,”, “RT, 45C,” for “RT, 45 C,”, “described by” for “described in”

[7] = test system: p53 (wild-type p53 MCF7 cells); experiment: p53 protein expression by Western Blot (4 antibodies) in MCF7 cells; details: 5 μM, 48 hours, vs DMSO
Procedure: as §1, §2
Cells were harvested after 48 hours of treatment. […]
as §6
The amount of total proteins in each extract was quantified using BCA kit (promega). […]
as §7

[8] = test system: p53-target genes Hdm2, Bcl-2, p21 (wild-type p53 MCF7 cells); experiment: p53 transcriptional activity: p53-target gene expression by Western-blot in MCF7 cells; details: 5 μM, 48 hours
Procedure: as §1, §2, §3, §8

[9] = mutant p53 MDA-MB-231-Luc-D3H2N cells in FCS-free medium
[10] = mutant p53 MDA-MB-231-Luc-D3H2N cells in normal medium
[11] = mutant p53 MDA-MB-231-Luc-D3H2N cells in FCS-free medium, RT-qPCR
[12] = mutant p53 MDA-MB-231-Luc-D3H2N cells in normal medium, RT-qPCR

SMILES	total p53 expression (total isoforms, TA) at mRNA levels [1]	Δ133p53 mRNA level [1]	p53 expression at mRNA levels (total isoforms, TA): decreased or not [2]	p53 expression at mRNA levels (total isoforms, TA) [2]	p53 protein levels (full-length) [3, 9]	p53 protein levels (full-length) [3, 10]	p53-target genes expression [4, 10]	expression of p53 β-forms (mRNA) [5]	expression of p53 γ-forms (mRNA) [5]	p53 α-form expression at mRNA levels [5]	expression of p53 γ-forms (mRNA) [6, 11]	p53 α-form expression at mRNA levels [6, 11]	expression of p53 β-forms (mRNA) [6, 12]	expression of p53 γ-forms (mRNA) [6, 12]	p53 α-form expression at mRNA levels [6, 12]	p53 protein levels (full-length) [7]	expression of Bcl-2 (p53-target gene) [8]	expression of Hdm2 (p53-target gene) [8]	further results
CC(C)CCNC(=O)c1cccc(Nc2cccc(/C=C/c3ccncc3)c2)c1 [Compound 1, (E)-N-(3-methylbutyl)-3-[3-(2-pyridin-4-ylvinyl)phenylamino]benzamide]	did not change	increased	decreased	significant decrease	did not change	did not change	did not affect	tend to increase	tend to increase	did not change	no significant increase	did not change	tend to increase	tend to increase	did not change				expression of Hdm2 (p53-target gene) [4, 9]: slight decrease; p53 γ-forms expression by nested RT-PCR [6, 9]: restoration; p53 γ-forms expression by nested RT-PCR [6, 10]: restoration
CCN(CC)CCCNC(=O)c1cccc(Nc2cccc(/C=C/c3ccc(OC)cc3)c2)c1 [Compound 40]	did not change	increased		decreased	did not change	did not change	did not affect	tend to increase	tend to increase	did not change		did not change	tend to increase	tend to increase	did not change	decreased	decreased expression	decreased expression	p53-target genes expression [4, 9]: did not affect
CCN(CC)CCNC(=O)c1ccccc1Nc1ccc(OC(F)(F)F)cc1 [Compound 45, N-(2-diethylamino-ethyl)-2-(4-trifluoromethoxy-phenylamino)-benzamide]	did not change		decreased	decreased	did not change	did not change	slight decrease	tend to increase	tend to increase	did not change	tend to increase	did not change	tend to increase	tend to increase	did not change	decreased	decreased expression	decreased expression	expression of Bcl-2 (p53-target gene) [4, 9]: slight decrease; expression of p53 β-forms (mRNA) [6, 11]: tend to increase; significant increase of p53 β-forms (mRNA) [6, 12]: 3 fold; significant increase of p53 γ-forms (mRNA) [6, 12]: 2 fold
